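48-hour exposure; five concentrations; linearly interpolated endpoints. Here, GI50 denotes the concentration required for 50% inhibition of growth.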 Calls of active or inactive are those of the source. Cut-off read from the data, not from the text of the source: active = GI50 up to about 1.1 µM and inactive = higher.

Among the test systems are OVCAR-8; UACC-62; KM12; SF-539; M14; SNB-19; NCI-H522; OVCAR-5; CAKI-1; SN12C; SK-OV-3; MDA-MB-435; NCI-H23; HCT-116; BT-549; MCF7; MDA-N; RPMI-8226; A498.
Common to all, as to assay: growth of human tumour cells (NCI), 48 h

As for `COc1cccc(/C=C2/Sc3scc(-c4ccccc4)[n+]3C2=O)c1O`, the GI50 with OVCAR-8 was 17.5 µM (inactive); in the assay with UACC-62, 15.5 µM (inactive); in the assay with KM12 it was 18.6 µM (inactive); in the assay on SF-539, 16.1 µM (inactive); with M14, 26 µM (inactive); in the assay on SNB-19, 21.3 µM (inactive). Moreover, the GI50 is 18.8 µM (inactive) in the assay on NCI-H522; 36.7 µM (inactive) in the assay on OVCAR-5; 21.3 µM (inactive) in the assay with CAKI-1; 17.9 µM (inactive) in the assay on SN12C; 22.3 µM (inactive) with SK-OV-3; 8.65 µM (inactive) in the assay on MDA-MB-435. Further, the GI50 was 17.3 µM (inactive) in the assay on NCI-H23, 14.9 µM (inactive) in the assay with HCT-116, 21.7 µM (inactive) in the assay on BT-549 and 15.5 µM (inactive) with MCF7.
For `CC(=O)Oc1cc(OC(C)=O)c2c(C)cc(=O)oc2c1`, the GI50 in the assay with OVCAR-8 is > 100 µM (inactive); in the assay on UACC-62, > 100 µM (inactive); in the assay with KM12, > 100 µM (inactive); with SF-539 it was 36.1 µM (inactive); in the assay with MDA-N it was > 100 µM (inactive); in the assay on M14, 87.3 µM (inactive). Also, the GI50 with RPMI-8226, in the assay with SNB-19, in the assay on OVCAR-5, in the assay on SN12C, with SK-OV-3 and in the assay on MDA-MB-435 was > 100 µM (inactive) each time. Moreover, the GI50 in the assay with NCI-H23 was > 100 µM (inactive); with A498 it was 41 µM (inactive); with HCT-116, > 100 µM (inactive); with MCF7, 76.2 µM (inactive).
Regarding `COC1(C)CC2N(C(=O)c3ccccc3)N=C(c3ccccc3)CC2(C)O1` (centres undefined), the GI50 in the assay on OVCAR-8 is > 100 µM (inactive); in the assay with UACC-62 it was 43.3 µM (inactive); in the assay on KM12, > 100 µM (inactive); in the assay with SF-539, > 100 µM (inactive); in the assay with M14 it was > 100 µM (inactive); in the assay on RPMI-8226, 89.5 µM (inactive). Moreover, the GI50 with SNB-19, in the assay with NCI-H522, in the assay with OVCAR-5, in the assay with CAKI-1, in the assay with SN12C and in the assay with SK-OV-3 was > 100 µM (inactive) in each case. Moreover, the GI50 in the assay with A498 and in the assay with HCT-116 was > 100 µM (inactive) in each case.
Regarding `Cc1cc(C)nc(Nc2nc3cc([N+](=O)[O-])ccc3[nH]2)n1`, the GI50 in the assay on OVCAR-8, with UACC-62, in the assay with KM12, with SF-539, in the assay with M14 and in the assay on RPMI-8226 was > 100 µM (inactive) in each case. In addition, the GI50 in the assay with SNB-19, with NCI-H522, in the assay on OVCAR-5, in the assay with CAKI-1, with SN12C and in the assay on NCI-H23 was > 100 µM (inactive) throughout. The GI50 in the assay on A498 and with HCT-116 was > 100 µM (inactive) each time.
In the case of `CCOC(=O)/C=C(\C)Sc1cc(O)c2ccccc2c1O`, the GI50 in the assay on OVCAR-8 was 16.5 µM (inactive); in the assay on UACC-62 it was 31.1 µM (inactive); with KM12, 28.6 µM (inactive); with SF-539, 21.5 µM (inactive); in the assay on M14, 10.8 µM (inactive); with RPMI-8226, 24.8 µM (inactive). Moreover, the GI50 was 14.4 µM (inactive) in the assay with SNB-19; 10.1 µM (inactive) in the assay on NCI-H522; 24.4 µM (inactive) in the assay with OVCAR-5; 23.5 µM (inactive) in the assay on CAKI-1; 29.2 µM (inactive) in the assay with SN12C; 34.4 µM (inactive) in the assay on SK-OV-3. Further, the GI50 is 2.65 µM (inactive) in the assay on MDA-MB-435; 30.4 µM (inactive) in the assay on NCI-H23; 18.5 µM (inactive) with A498; 6.47 µM (inactive) in the assay on HCT-116; 22 µM (inactive) in the assay on BT-549; 13.9 µM (inactive) with MCF7.
As for `O=C(Nc1cccc([N+](=O)[O-])c1)c1nnn(-c2cccc([N+](=O)[O-])c2)c1O`, the GI50 was > 100 µM (inactive) in the assay with OVCAR-8; > 100 µM (inactive) in the assay with UACC-62; > 100 µM (inactive) in the assay on KM12; 0.0322 µM (active) in the assay on SF-539; > 100 µM (inactive) with MDA-N; > 100 µM (inactive) in the assay with M14. Further, the GI50 with RPMI-8226, with SNB-19, in the assay with NCI-H522, in the assay with OVCAR-5, with CAKI-1 and with SN12C was > 100 µM (inactive) in each case. Also, the GI50 with SK-OV-3, in the assay on MDA-MB-435, with NCI-H23, with A498, with HCT-116 and in the assay on MCF7 was > 100 µM (inactive) in each case.
On to `COC(=O)C1=C(CCC[C@H](C)O[Si](C)(C)C(C)(C)C)NC(=O)N2[C@@H](CCO)CC[C@H]12`, for which the GI50 in the assay on OVCAR-8 was 15.5 µM (inactive); in the assay with KM12, 18.3 µM (inactive); in the assay with SF-539 it was 16.7 µM (inactive); in the assay on M14, 16.3 µM (inactive); with RPMI-8226, 14.9 µM (inactive); in the assay with SNB-19, 15.2 µM (inactive). The GI50 is 5.71 µM (inactive) in the assay on NCI-H522; 19.4 µM (inactive) in the assay on OVCAR-5; 17.2 µM (inactive) in the assay with CAKI-1; 15 µM (inactive) in the assay on SN12C; 15.8 µM (inactive) with SK-OV-3; 17.7 µM (inactive) with MDA-MB-435. Moreover, the GI50 in the assay on NCI-H23 was 13.2 µM (inactive); with A498, 16.6 µM (inactive); in the assay on HCT-116 it was 4.18 µM (inactive); with BT-549, 15 µM (inactive).
As for `CCOC(=O)c1c(SC(=O)c2cc(OC)c(OC)c(OC)c2)n(-c2ccccc2)c(=S)n(-c2ccccc2)c1=O`, the GI50 with OVCAR-8, in the assay with UACC-62, in the assay on KM12, in the assay on SF-539, in the assay with MDA-N and in the assay on M14 was > 100 µM (inactive) each time. For the same compound, the GI50 in the assay with SNB-19, in the assay on NCI-H522, in the assay with OVCAR-5, in the assay with CAKI-1, with SN12C and in the assay on SK-OV-3 was > 100 µM (inactive) throughout. Besides, the GI50 with MDA-MB-435, in the assay with NCI-H23, in the assay with A498, in the assay with HCT-116 and in the assay with MCF7 was > 100 µM (inactive) each time.
As for `OCC(O)C(O)C(C=NNc1ncnc2ccc(Br)cc12)=NNc1ncnc2ccc(Br)cc12` (centres undefined), the GI50 in the assay with OVCAR-8 was 0.533 µM (active); with KM12, 2.72 µM (inactive); with SF-539 it was 1.94 µM (inactive); in the assay with MDA-N, 3.63 µM (inactive); in the assay with M14 it was 1.62 µM (inactive); in the assay on RPMI-8226, 1.19 µM (inactive). Moreover, the GI50 was 2.17 µM (inactive) in the assay on SNB-19; 0.383 µM (active) with NCI-H522; 3.58 µM (inactive) in the assay on OVCAR-5; 0.83 µM (active) in the assay on CAKI-1; 2.39 µM (inactive) with SN12C; 1.85 µM (inactive) in the assay on SK-OV-3. Also, the GI50 in the assay on MDA-MB-435 is 3.38 µM (inactive); with A498 it was 4.23 µM (inactive); in the assay on HCT-116 it was 0.358 µM (active); in the assay with MCF7, 0.378 µM (active).
Turning to `COc1cc([C@@H]2OC[C@@H]3C(c4cc(OC)c5c(c4)OCO5)OC[C@@H]32)cc(OC)c1OC` (some centres undefined), the GI50 with OVCAR-8 is 69.8 µM (inactive); in the assay on UACC-62 it was 49.1 µM (inactive); with KM12, > 100 µM (inactive); in the assay on SF-539, > 100 µM (inactive); in the assay on M14, > 100 µM (inactive); in the assay with RPMI-8226 it was 49.5 µM (inactive). In addition, the GI50 in the assay with SNB-19 is > 100 µM (inactive); with NCI-H522 it was 96.8 µM (inactive); with OVCAR-5, > 100 µM (inactive); in the assay with CAKI-1, > 100 µM (inactive); in the assay on SK-OV-3, > 100 µM (inactive); in the assay on MDA-MB-435, > 100 µM (inactive). The GI50 with NCI-H23 is > 100 µM (inactive); in the assay on A498, > 100 µM (inactive); in the assay with HCT-116, > 100 µM (inactive); in the assay with BT-549, 57.9 µM (inactive); in the assay on MCF7, > 100 µM (inactive).
On to `CN1CCC/C1=N\C#N`, for which the GI50 with OVCAR-8, with UACC-62, with KM12, in the assay with SF-539, with MDA-N and in the assay with M14 was > 100 µM (inactive) throughout. Also, the GI50 in the assay on RPMI-8226, in the assay with SNB-19, in the assay with NCI-H522, in the assay on OVCAR-5, in the assay on CAKI-1 and with SN12C was > 100 µM (inactive) each time. In addition, the GI50 with SK-OV-3, in the assay with MDA-MB-435, in the assay with NCI-H23, with A498, in the assay with HCT-116 and in the assay on MCF7 was > 100 µM (inactive) each time.
For the compound `O=C(/C=N/c1ccccc1[S-])c1ccco1.O=C(/C=N/c1ccccc1[S-])c1ccco1.[Zn+2]`, the GI50 with OVCAR-8 was 6.37 µM (inactive); in the assay on UACC-62 it was 15.6 µM (inactive); in the assay on KM12 it was 12.8 µM (inactive); in the assay with SF-539 it was 13.3 µM (inactive); in the assay on M14, 6.53 µM (inactive); in the assay with SNB-19, 5.78 µM (inactive). The GI50 with NCI-H522 was 10 µM (inactive); with OVCAR-5, 16.8 µM (inactive); with CAKI-1, 10 µM (inactive); in the assay on SN12C, 10 µM (inactive); with SK-OV-3, 27.9 µM (inactive); in the assay on NCI-H23 it was 5.41 µM (inactive). Moreover, the GI50 was 21.5 µM (inactive) in the assay with A498 and 4.06 µM (inactive) in the assay with HCT-116.

(Values after ChEMBL document CHEMBL1201862, “PubChem BioAssay data set” (2004).)
